Our source for the inhibition values is US20260001875A1, “AMINOPYRIMIDINYL DERIVATIVES FOR THE TREATMENT OF PARKINSON'S DISEASE” (UNIVERSITY OF DUNDEE, priority 2022, published 2026).

For assay [1], the system named is Rab10 pThr73. Nature of the assay: Rab10 Thr73 dephosphorylation (immunoblot) in WT MEFs. In kind it is cell-based, mouse. The settings on record: Mus musculus, read-out: pRab10 inhibited in WT MEFs. As to the method:
Western blot degradation assays for the LRRK2 protacs were performed with WT and PD-associated LRRK2 [G2019S] mouse embryonic fibroblasts (MEFs). The second-generation PROTACs were tested in parallel with the first generation PROTACs SD75, SD82, and SD100. The compounds were tested at 33 nM or […] concentrations for 4 hours or 24 hours, running two biological replicates per condition and achieving quantifications representative of both replicates. Analysis by quantitative immunoblotting was performed with readouts of the total LRRK2 (antibody recognizes epitope in C-terminus of protein), Rab10 pThr73 (physiological substrate) and LRRK2 pSer935 (biomarker phosphorylation site).
(§1) Primary MEFs were generated as described in a previous study (Wiggin et al., Mol. Cell Biol. 2002 April; 22(8):2871-81.). Briefly, the uterine horn was collected from adult female mice at day E12.5 and transferred to a 10 cm tissue culture dish containing cold PBS. Two forceps were used to tear the yolk sacs to isolate each embryo. Forceps were cleaned thoroughly with 70% ethanol between each embryo isolation. The embryos were culled, and a tissue piece was collected in a PCR tube for genotyping. The red tissue of the embryo, which grows to become the heart and liver, was removed. The remainder of the embryo was minced with a scalpel blade and incubated with 7.5 ml trypsin-EDTA solution for 10 minutes in a 37° C. tissue culture CO2 incubator. The dish was removed from the incubator and checked under a light microscope for single cells. 7.5 ml complete media was added to the trypsinised cells, and the cell suspension was transferred to a 15 ml Falcon tube, centrifuged at 1200 rpm for 5 minutes at room temperature. The trypsin was aspirated, the cell pellet was resuspended in 5 ml fresh complete media, and the cell suspension was plated in a 60 mm tissue culture dish and incubated in a 37° C., 5% CO2 tissue culture incubator. The MEFs at this stage were considered as passage 0 and were passaged and expanded for experimental use once the genotype was confirmed by allelic sequencing and immunoblotting. MEFs were cultured in Dulbecco's modified Eagle medium (DMEM) containing 10% (v/v) fetal bovine serum (FBS), 2 mM L-glutamine, 100 U/ml penicillin, and 100 μg/ml streptomycin supplemented with 1× non-essential amino acids and 1 mM sodium pyruvate.
Culturing and passaging of adherent cell lines were carried out using aseptic technique in CL1 or CL2 (for PBMC isolation) biological safety cabinets. All cells were incubated in a 37° C. incubator with 5% CO2. Cell lines were regularly tested for mycoplasma contamination. For western blot assay, the cells were seeded in 6-well plates. After treating with testing compounds at indicated concentrations and time period, the media was removed and the cells were washed with PBS and lysed in 100 μl ice-cold complete lysis buffer containing 50 mM Tris-HCl pH 7.4, 1 mM EGTA, 10 mM 2-glycerophosphate, 50 mM sodium fluoride, 5 mM sodium pyrophosphate, 270 mM sucrose, supplemented with 1 μg/ml microcystin-LR, 1 mM sodium orthovanadate, complete EDTA-free protease inhibitor cocktail (Roche) and 1% (v/v) Triton X-100. The cells were immediately placed on ice and were scraped and collected into 1.5 ml Eppendorf tubes. Cell lysates were incubated on ice for 10 minutes prior to centrifugation at 15,000 g at 4° C. for 15 minutes. The cell pellet was discarded, and supernatant was collected for analysis by quantitative immunoblotting. For long term storage, the supernatant was flash frozen and stored at −80° C. Protein concentrations of cell lysates were determined using the Bradford assay.
Cell lysates containing a quarter of a volume of 4× NuPAGE LDS sample buffer (NP0007) supplemented with 5% β-mercaptoethanol, were heated at 95° C. for 5 minutes. […]
(Immunoblotting shows a protein as a band on a membrane.)

Assay [2] relates to Rab10 pThr73. Nature of the assay: Rab10 Thr73 dephosphorylation (immunoblot) in LRRK2^G2019S MEFs. The class given is cell-based. The settings on record: Mus musculus, read-out: pRab10 inhibited in LRRK2^G2019S MEFs. Here is the method:
The second-generation PROTACs were tested in parallel with the first generation PROTACs SD75, SD82, and SD100. The compounds were tested at 33 nM or […] concentrations for 4 hours or 24 hours, running two biological replicates per condition and achieving quantifications representative of both replicates. Analysis by quantitative immunoblotting was performed with readouts of the total LRRK2 (antibody recognizes epitope in C-terminus of protein), Rab10 pThr73 (physiological substrate) and LRRK2 pSer935 (biomarker phosphorylation site).
as §1
Culturing and passaging of adherent cell lines were carried out using aseptic technique in CL1 or CL2 (for PBMC isolation) biological safety cabinets. All cells were incubated in a 37° C. incubator with 5% CO2. Cell lines were regularly tested for mycoplasma contamination. For western blot assay, the cells were seeded in 6-well plates. […] The cells were immediately placed on ice and were scraped and collected into 1.5 ml Eppendorf tubes. Cell lysates were incubated on ice for 10 minutes prior to centrifugation at 15,000 g at 4° C. for 15 minutes. The cell pellet was discarded, and supernatant was collected for analysis by quantitative immunoblotting. For long term storage, the supernatant was flash frozen and stored at −80° C. Protein concentrations of cell lysates were determined using the Bradford assay.
Cell lysates containing a quarter of a volume of 4× NuPAGE LDS sample buffer (NP0007) supplemented with 5% β-mercaptoethanol, were heated at 95° C. for 5 minutes. 15 to 20 μg of samples were loaded onto pre-cast 4-12% Bis-Tris midi 20W or 26W gels (Thermofisher Scientific®, Cat #WG1402BOX or WG1403BOX) and resolved at 130 V for 2 hours with NuPAGE MOPS SDS running buffer (Thermofisher Scientific® Cat #NP0001-02). Proteins were electrophoretically transferred onto a 0.45 μm nitrocellulose membrane (GE Healthcare, Amersham Protran® Supported 0.45 mm NC) at 90 V for 90 min on ice in transfer buffer (48 mM Tris base and 39 mM glycine supplemented with 20% methanol). The transferred membrane was blocked with 5% (w/v) skim milk powder dissolved in tris-buffered saline with tween (TBS-T) (50 mM Tris base, 150 mM sodium chloride (NaCl), 0.1% (v/v) Tween-20) at room temperature for 1 hour.

For assay [3], the system named is Rab10 pThr73. The description is as above. The class given is cell-based, mouse. The settings on record: Mus musculus, read-out: pRab10 inhibited in LRRK2^G2019S MEFs.

As for `CNc1nc(Nc2ccc(C(=O)N3CCN(CCCOc4cc(-c5scnc5C)ccc4CNC(=O)[C@@H]4C[C@@H](O)CN4C(=O)[C@@H](NC(=O)C4(F)CC4)C(C)(C)C)CC3)cc2OC)ncc1Cl` [SD13, (2S,4R)—N-(2-(3-(4-(4-((5-chloro-4-(methylamino)pyrimidin-2-yl)amino)-3-methoxybenzoyl)piperazin-1-yl)propoxy)-4-(4-methylthiazol-5-yl)benzyl)-1-((S)-2-(1-fluorocyclopropane-1-carboxamido)-3,3-dimethylbutanoyl)-4-hydroxypyrrolidine-2-carboxamide], the inhibition at 0.033 µM in the assay with Rab10 pThr73 [1] (33 nM/4 h treatment) is 0 to 25%; in the assay on Rab10 pThr73 [1] (33 nM/24 h treatment) it was 10 to 40%; in the assay on Rab10 pThr73 [2] (33 nM/4 h treatment) it was 0 to 60%; with Rab10 pThr73 [2] (33 nM/24 h treatment), 0 to 70%. Moreover, the inhibition at 1 µM in the assay with Rab10 pThr73 [1] (1 μM/4 h treatment) was in the range of 18 to 90%; with Rab10 pThr73 [1] (1 μM/24 h treatment) it was 30 to 90%; in the assay with Rab10 pThr73 [3] (1 μM/4 h treatment) it was 30 to 95%; in the assay with Rab10 pThr73 [3] (1 μM/24 h treatment), 30 to 100%.

`CNc1nc(Nc2ccc(C(=O)N3CCN(CCOCCOCCOCCOCCOc4cc(-c5scnc5C)ccc4CNC(=O)[C@@H]4C[C@@H](O)CN4C(=O)[C@@H](NC(=O)C4(F)CC4)C(C)(C)C)CC3)cc2OC)ncc1Cl` [SD79, (2S,4R)—N-(2-((14-(4-(4-((5-chloro-4-(methylamino)pyrimidin-2-yl)amino)-3-methoxybenzoyl)piperazin-1-yl)-3,6,9,12-tetraoxatetradecyl)oxy)-4-(4-methylthiazol-5-yl)benzyl)-1-((S)-2-(1-fluorocyclopropane-1-carboxamido)-3,3-dimethylbutanoyl)-4-hydroxypyrrolidine-2-carboxamide]: the inhibition at 0.033 µM in the assay with Rab10 pThr73 [1] (33 nM/4 h treatment) was 0 to 25%; with Rab10 pThr73 [1] (33 nM/24 h treatment), 10 to 40%; in the assay on Rab10 pThr73 [2] (33 nM/4 h treatment), 0 to 60%; in the assay with Rab10 pThr73 [2] (33 nM/24 h treatment), 0 to 70%. The inhibition at 1 µM in the assay on Rab10 pThr73 [1] (1 μM/4 h treatment) is 18 to 90%; with Rab10 pThr73 [1] (1 μM/24 h treatment) it was 30 to 90%; in the assay with Rab10 pThr73 [3] (1 μM/4 h treatment) it was 30 to 95%; in the assay on Rab10 pThr73 [3] (1 μM/24 h treatment), 30 to 100%.

`CNc1nc(Nc2ccc(C(=O)N3CCN(CCOCCOCCOCCOCCOc4cccc(C(=O)c5csc(C6CCCN6C(=O)[C@@H](NC(=O)[C@H](C)NC)C6CCCCC6)n5)c4)CC3)cc2OC)ncc1Cl` (stereo partly drawn) [SD112, (S)—N—((S)-2-((S)-2-(4-(3-((14-(4-(4-((5-chloro-4-(methylamino)pyrimidin-2-yl)amino)-3-methoxybenzoyl)piperazin-1-yl)-3,6,9,12-tetraoxatetradecyl)oxy)benzoyl)thiazol-2-yl)pyrrolidin-1-yl)-1-cyclohexyl-2-oxoethyl)-2-(methylamino)propenamide]: the inhibition at 0.033 µM lay within 0 to 25% in the assay with Rab10 pThr73 [1] (33 nM/4 h treatment), 10 to 40% with Rab10 pThr73 [1] (33 nM/24 h treatment), 0 to 60% in the assay with Rab10 pThr73 [2] (33 nM/4 h treatment) and 0 to 70% with Rab10 pThr73 [2] (33 nM/24 h treatment). For the same compound, the inhibition at 1 µM was in the range of 18 to 90% with Rab10 pThr73 [1] (1 μM/4 h treatment), 30 to 90% in the assay on Rab10 pThr73 [1] (1 μM/24 h treatment), 30 to 95% in the assay on Rab10 pThr73 [3] (1 μM/4 h treatment) and 30 to 100% in the assay on Rab10 pThr73 [3] (1 μM/24 h treatment).

For the compound `CNc1nc(Nc2ccc(C(=O)N3CCN(CCOCCOCCOc4cccc(C(=O)c5csc(C6CCCN6C(=O)[C@@H](NC(=O)[C@H](C)NC)C6CCCCC6)n5)c4)CC3)cc2OC)ncc1Cl` (stereo partly drawn) [SD113, (S)—N—((S)-2-((S)-2-(4-(3-(2-(2-(2-(4-(4-((5-chloro-4-(methylamino)pyrimidin-2-yl)amino)-3-methoxybenzoyl)piperazin-1-yl)ethoxy)ethoxy)ethoxy)benzoyl)thiazol-2-yl)pyrrolidin-1-yl)-1-cyclohexyl-2-oxoethyl)-2-(methylamino)propenamide], the inhibition at 0.033 µM in the assay on Rab10 pThr73 [1] (33 nM/4 h treatment) was 0 to 25%; in the assay with Rab10 pThr73 [1] (33 nM/24 h treatment) it was 10 to 40%; with Rab10 pThr73 [2] (33 nM/4 h treatment) it was 0 to 60%; with Rab10 pThr73 [2] (33 nM/24 h treatment) it was 0 to 70%. The inhibition at 1 µM was 18 to 90% with Rab10 pThr73 [1] (1 μM/4 h treatment), 30 to 90% in the assay on Rab10 pThr73 [1] (1 μM/24 h treatment), 30 to 95% in the assay on Rab10 pThr73 [3] (1 μM/4 h treatment) and 30 to 100% with Rab10 pThr73 [3] (1 μM/24 h treatment).

With `CNc1nc(Nc2ccc(C(=O)N3CCN(CCCOc4cccc(C(=O)c5csc(C6CCCN6C(=O)[C@@H](NC(=O)[C@H](C)NC)C6CCCCC6)n5)c4)CC3)cc2OC)ncc1Cl` (stereo partly drawn) [SD114, (S)—N—((S)-2-((S)-2-(4-(3-(3-(4-(4-((5-chloro-4-(methylamino)pyrimidin-2-yl)amino)-3-methoxybenzoyl)piperazin-1-yl)propoxy)benzoyl)thiazol-2-yl)pyrrolidin-1-yl)-1-cyclohexyl-2-oxoethyl)-2-(methylamino)propenamide], the inhibition at 0.033 µM with Rab10 pThr73 [1] (33 nM/4 h treatment) is 0 to 25%; in the assay on Rab10 pThr73 [1] (33 nM/24 h treatment), 10 to 40%; in the assay with Rab10 pThr73 [2] (33 nM/4 h treatment) it was 0 to 60%; in the assay on Rab10 pThr73 [2] (33 nM/24 h treatment), 0 to 70%. Also, the inhibition at 1 µM with Rab10 pThr73 [1] (1 μM/4 h treatment) was 18 to 90%; with Rab10 pThr73 [1] (1 μM/24 h treatment), 30 to 90%; in the assay on Rab10 pThr73 [3] (1 μM/4 h treatment) it was 30 to 95%; in the assay with Rab10 pThr73 [3] (1 μM/24 h treatment), 30 to 100%.

Consider `CNc1nc(Nc2ccc(C(=O)N3CCN(Cc4ccc(CSC(C)(C)[C@H](NC(=O)C5(F)CC5)C(=O)N5C[C@H](O)C[C@H]5C(=O)NCc5ccc(-c6scnc6C)cc5)cc4)CC3)cc2OC)ncc1C(F)(F)F` [XL01070B, (2S,4R)-1-((R)-2-(1-fluorocyclopropane-1-carboxamido)-3-((4-((4-(3-methoxy-4-((4-(methylamino)-5-(trifluoromethyl)pyrimidin-2-yl)amino)benzoyl)piperazin-1-yl)methyl)benzyl)thio)-3-methylbutanoyl)-4-hydroxy-N-(4-(4-methylthiazol-5-yl)benzyl)pyrrolidine-2-carboxamide], for which the inhibition at 0.033 µM in the assay with Rab10 pThr73 [1] (33 nM/4 h treatment) lay within 0 to 40%; in the assay with Rab10 pThr73 [1] (33 nM/24 h treatment), 0 to 60%; in the assay with Rab10 pThr73 [2] (33 nM/4 h treatment) it was 0 to 70%; in the assay with Rab10 pThr73 [2] (33 nM/24 h treatment) it was 0 to 90%. For the same compound, the inhibition at 1 µM was in the range of 10 to 95% with Rab10 pThr73 [1] (1 μM/4 h treatment), 30 to 100% with Rab10 pThr73 [1] (1 μM/24 h treatment), 20 to 100% with Rab10 pThr73 [3] (1 μM/4 h treatment) and 10 to 100% in the assay with Rab10 pThr73 [3] (1 μM/24 h treatment).
